Test results published in patent publication EP3521435A1, “A HIGH STRINGENCY SELECTION SYSTEM FOR PROTEIN EXPRESSION IN PROLINE-AUXOTROPHIC CELLS” (Bayer AG, priority 2018, dated 2019).

Tested on: CHO-K1 cells
Assay: Batch fermentation in shake flasks of human IgG1 expressing stable cell populations (Poros A-HPLC titer, viable cell density, viability)
Format: cell-based, Chinese hamster
Details: pJF1576; for Productivity profile: human IgG1
Procedure: To efficiently test the impact of different procedures on improving selection stringency, experimental testing in stable cell populations was performed. As test molecules, enhanced green fluorescent protein (GFP) as well as a human IgG1 were chosen. CHO-K1 cells adapted to growth in suspension in defined medium were obtained from SAFC and cultivated in EX-CELL CD CHO Fusion medium (SAFC 14365C). Custom-made EX-CELL CD CHO Fusion medium without L-Proline (Pro) and without L-Ornithine (Orn) ("proline-free medium") was obtained from SAFC. The expression vector system was based on modified versions of "CET 1019 AS-puro-SceI" and "CET 1019 AD-puro-SceI" for GFP and human IgG1, respectively, from Merck-Millipore, containing the Puromycin selection marker (Puromycin N-acetyl-transferase) known to exert a high selection stringency. To minimize variations in cell populations derived from using different transfections or different vectors, the first series of experiments were conducted using vectors into which a P5CS expression cassette was cloned upstream of a UCOE element, in addition to the Puromycin selection marker present downstream of a gene of interest. This way, it was possible to pool different transfections using the same vector to obtain a common starting point, and split the mixture according to different selection conditions, minimizing any variations that are not due to selection conditions themselves. Expression of long and short isoform of murine P5CS (Protein: Delta-1-pyrroline-5-carboxylate synthase; Gene: Aldh18a1; UniProtKB accession number: Q9Z110-1 & Q9Z110-2) was driven by a SV40 promoter. A SV40 polyadenylation sequence was used at the 3' end of the gene. More details can be found in Table 1. Typically, CHO cells were cultivated in EX-CELL CD CHO Fusion medium containing 6 mM GlutaMAX (Thermo Fisher, 35050-38) ("CD-Fusion medium") at 37 °C with 5% CO2. Cells were grown to logarithmic phase under shaking conditions for transfections. 1e7 cells/cuvette were transfected using nucleofection (Amaxa Nucleofector II, following the manufacturer's recommendations) with 5 µg of linearized DNA. After transfection, cells were taken up in 1 ml medium and transferred into 1 well of a 6 well microtiter plate (MTP) already containing 1 ml medium. The cells were incubated for 24 h without shaking, after which 9 ml medium were added and cells were washed (either in standard or proline-free medium). Multiple transfections were pooled, if applicable. Cells were adjusted to 2e5 viable cells/ml and 10 ml were transferred to T-25 flasks. Reference cell populations were selected using 10 µg/ml Puromycin in CD-Fusion medium. For P5CS-based selection, EX-CELL CD CHO Fusion medium (custom-made, SAFC) containing 6 mM GlutaMAX without proline and without ornithine was used ("proline-free" or "CD-Fusion w/o Pro" medium), with or without additional selection pressure.
Cell viability of the different populations was monitored over time. As soon as cell populations appeared to recover from selection pressure, cells were transferred to Shake Flask or TubeSpins for expansion in suspension under shaking conditions. Subsequently, stable cell populations transfected with IgG were seeded at 2e5 viable cells/ml for batch fermentation without selection pressure (i.e. standard CD-Fusion medium containing proline and no other selective agents). The cells were cultivated for 5-10 days, viable cell densities and productivity were monitored over time. IgG titers were determined using Poros A-HPLC method. Typically, final batch titers were recorded at a time point at which majority of cultures had around 70% viability. Stable cell populations transfected with GFP vector were subjected to analysis by flow cytometry using Guava easyCyte 8HT Benchtop Flow Cytometer (Millipore). 250 µl of cell culture were transferred to 96 MTP and washed with PBS. Dead cells were excluded from analysis using propidium iodide (PI). […]

[1] = Day 2 after inoculation, selected in CD-Fusion w/o Pro + 0.4 mM DHP, non-selecting conditions
[2] = Day 3 after inoculation, selected in CD-Fusion w/o Pro + 0.05 mM DHP, selective conditions
[3] = Day 3 after inoculation, selected in CD-Fusion w/o Pro + 0.1 mM DHP, selective conditions
[4] = Day 3 after inoculation, selected in CD-Fusion w/o Pro + 0.2 mM DHP, selective conditions
[5] = Day 3 after inoculation, selected in CD-Fusion w/o Pro + 0.4 mM DHP, selective conditions
[6] = Day 4 after inoculation, selected in CD-Fusion w/o Pro + 0.05 mM DHP, non-selecting conditions
[7] = Day 4 after inoculation, selected in CD-Fusion w/o Pro + 0.1 mM DHP, non-selecting conditions
[8] = Day 4 after inoculation, selected in CD-Fusion w/o Pro + 0.2 mM DHP, non-selecting conditions
[9] = Day 4 after inoculation, selected in CD-Fusion w/o Pro + 0.4 mM DHP, non-selecting conditions
[10] = Day 5 after inoculation, selected in CD-Fusion w/o Pro + 0.05 mM DHP, selective conditions
[11] = Day 5 after inoculation, selected in CD-Fusion w/o Pro + 0.1 mM DHP, selective conditions
[12] = Day 5 after inoculation, selected in CD-Fusion w/o Pro + 0.2 mM DHP, selective conditions
[13] = Day 5 after inoculation, selected in CD-Fusion w/o Pro + 0.4 mM DHP, selective conditions
[14] = Day 7 after inoculation, selected in CD-Fusion w/o Pro + 0.05 mM DHP, non-selecting conditions
[15] = Day 7 after inoculation, selected in CD-Fusion w/o Pro + 0.05 mM DHP, selective conditions
[16] = Day 7 after inoculation, selected in CD-Fusion w/o Pro + 0.1 mM DHP, non-selecting conditions
[17] = Day 7 after inoculation, selected in CD-Fusion w/o Pro + 0.1 mM DHP, selective conditions
[18] = Day 7 after inoculation, selected in CD-Fusion w/o Pro + 0.2 mM DHP, non-selecting conditions
[19] = Day 7 after inoculation, selected in CD-Fusion w/o Pro + 0.2 mM DHP, selective conditions
[20] = Day 7 after inoculation, selected in CD-Fusion w/o Pro + 0.4 mM DHP, non-selecting conditions
[21] = Day 7 after inoculation, selected in CD-Fusion w/o Pro + 0.4 mM DHP, selective conditions
[22] = Day 9 after inoculation, selected in CD-Fusion w/o Pro + 0.05 mM DHP, non-selecting conditions
[23] = Day 9 after inoculation, selected in CD-Fusion w/o Pro + 0.1 mM DHP, non-selecting conditions
[24] = Day 9 after inoculation, selected in CD-Fusion w/o Pro + 0.2 mM DHP, non-selecting conditions
[25] = Day 9 after inoculation, selected in CD-Fusion w/o Pro + 0.4 mM DHP, non-selecting conditions

O=C(O)[C@@H]1C=CCN1 [DHP, 3,4-Dehydro-L-Proline]
Viable cell density profile (Day 2 after inoculation, selected in CD-Fusion w/o Pro + 0.2 mM DHP, non-selecting conditions): 6,4E+05 VCD/ml
Viability profile [1]: 99.3%
Viable cell density profile [1]: 8,0E+05 VCD/ml
Viability profile [2]: 99.3%
Viable cell density profile [2]: 5.6E+06 VCD/ml
Viability profile [3]: 99.4%
Viable cell density profile [3]: 7.4E+06 VCD/ml
Viability profile [4]: 99.1%
Viable cell density profile [4]: 2.4E+06 VCD/ml
Viability profile [5]: 99.3%
Viable cell density profile [5]: 5.3E+06 VCD/ml
Productivity profile [6]: 24.2 mg/L
Productivity profile (Day 4 after inoculation, selected in CD-Fusion w/o Pro + 0.05 mM DHP, selective conditions): 114.8 mg/L
Productivity profile [7]: 31.7 mg/L
Productivity profile (Day 4 after inoculation, selected in CD-Fusion w/o Pro + 0.1 mM DHP, selective conditions): 83.8 mg/L
Productivity profile [8]: 34.6 mg/L
Productivity profile (Day 4 after inoculation, selected in CD-Fusion w/o Pro + 0.2 mM DHP, selective conditions): 104.8 mg/L
Productivity profile [9]: 41.0 mg/L
Productivity profile (Day 4 after inoculation, selected in CD-Fusion w/o Pro + 0.4 mM DHP, selective conditions): 105.5 mg/L
Viability profile [6]: 99.8%
Viable cell density profile [6]: 5,3E+06 VCD/ml
Viability profile [7]: 99.7%
Viable cell density profile [7]: 6,5E+06 VCD/ml
Viability profile [8]: 99.5%
Viable cell density profile [8]: 5,2E+06 VCD/ml
Viability profile [9]: 99.6%
Viable cell density profile [9]: 6,1E+06 VCD/ml
Viability profile [10]: 96.4%
Viable cell density profile [10]: 9.5E+06 VCD/ml
Viability profile [11]: 97.5%
Viable cell density profile [11]: 1.2E+07 VCD/ml
Viability profile [12]: 98.9%
Viable cell density profile [12]: 6.9E+06 VCD/ml
Viability profile [13]: 96.1%
Viable cell density profile [13]: 1.1E+07 VCD/ml
Productivity profile [14]: 48.6 mg/L
Productivity profile [15]: 166.2 mg/L
Productivity profile [16]: 104.4 mg/L
Productivity profile [17]: 125.8 mg/L
Productivity profile [18]: 87.4 mg/L
Productivity profile [19]: 179.7 mg/L
Productivity profile [20]: 116.4 mg/L
Productivity profile [21]: 133.4 mg/L
Viability profile [14]: 98.6%
Viable cell density profile [14]: 1,0E+07 VCD/ml
Viability profile [15]: 45.3%
Viable cell density profile [15]: 4.6E+06 VCD/ml
Viability profile [16]: 95.6%
Viable cell density profile [16]: 7,9E+06 VCD/ml
Viability profile [17]: 32.2%
Viable cell density profile [17]: 4.0E+06 VCD/ml
Viability profile [18]: 97.4%
Viable cell density profile [18]: 9,6E+06 VCD/ml
Viability profile [19]: 93.2%
Viable cell density profile [19]: 9.1E+06 VCD/ml
Viability profile [20]: 98.1%
Viable cell density profile [20]: 1,1E+07 VCD/ml
Viability profile [21]: 56.1%
Viable cell density profile [21]: 6.9E+06 VCD/ml
Productivity profile [22]: 115.5 mg/L
Productivity profile [23]: 127.1 mg/L
Productivity profile [24]: 153.7 mg/L
Productivity profile [25]: 164.7 mg/L
Viability profile [22]: 19.5%
Viable cell density profile [22]: 2,5E+06 VCD/ml
Viability profile [23]: 5.1%
Viable cell density profile [23]: 6,4E+05 VCD/ml
Viability profile [24]: 18.7%
Viable cell density profile [24]: 2,2E+06 VCD/ml
Viability profile [25]: 21.7%
Viable cell density profile [25]: 3,1E+06 VCD/ml
